According to ChEMBL document CHEMBL1146512, “Ketene acetal and spiroacetal constituents of the marine fungus Aigialus parvus BCC 5311” (J Nat Prod, 2004):
Activity calls are given as the source filed them.

Assays:
[1] = tested on: Human alphaherpesvirus 1; experiment: Antiviral activity against HSV1; format: functional, organism-based
[2] = tested on: BC1; experiment: Cytotoxicity against human BC1 cells; format: functional, cell-based
[3] = tested on: KB; experiment: Cytotoxicity against human KB cells; format: functional, cell-based
[4] = tested on: Candida albicans; experiment: Antifungal activity against Candida albicans; format: functional, organism-based
[5] = tested on: Plasmodium falciparum; experiment: Antimalarial activity against Plasmodium falciparum K1; format: functional, organism-based
[6] = tested on: Mycobacterium tuberculosis; experiment: Antitubercular activity against Mycobacterium tuberculosis H37Ra; format: functional, organism-based

Measured: Activity

CCCCCCC[C@@H]1OC2=C(C(=O)[C@H](C)O2)[C@H](O)[C@@]1(C)O
inactive: all assays above

COc1cc(O)c2c(c1)[C@@H]([C@H]1C[C@H](O)[C@H](O)[C@@]3(C=CC[C@H](C)O3)O1)OC2=O
inactive: all assays above
